≈ marks a conversion by molar mass, not a printed value. Each block holds one compound with its values, some of them ahead of it. Calls of active or inactive are those of the source. The calls are words filed in the database; no cut-off is given here.
Assays:
Bacillus subtilis [1] = test: Antibacterial activity against Bacillus subtilis JN934392 assessed as diameter of inhibition zone at 15 microg/well by agar well diffusion method; type: functional; conditions: read-out: DIZ
Bacillus cereus [2] = test: Antibacterial activity against Bacillus cereus JN934390 assessed as diameter of inhibition zone at 15 microg/well by agar well diffusion method; type: functional; conditions: read-out: DIZ
Listeria monocytogenes [3] = test: Antibacterial activity against Listeria monocytogenes assessed as diameter of inhibition zone at 15 microg/well by agar well diffusion method; type: functional; conditions: read-out: DIZ
Micrococcus luteus [4] = test: Antibacterial activity against Micrococcus luteus assessed as diameter of inhibition zone at 15 microg/well by agar well diffusion method; type: functional; conditions: read-out: DIZ
Staphylococcus aureus [5] = test: Antibacterial activity against Staphylococcus aureus ATCC 6538 assessed as diameter of inhibition zone at 15 microg/well by agar well diffusion method; type: functional; conditions: read-out: DIZ
Salmonella enteritidis [6] = test: Antibacterial activity against Salmonella enterica serotype Enteritidis ATCC 43972 assessed as diameter of inhibition zone at 15 microg/well by agar well diffusion method; type: functional, Salmonella enterica subsp. enterica serovar Enteritidis; conditions: read-out: DIZ
Klebsiella pneumoniae [7] = test: Antibacterial activity against Klebsiella pneumoniae assessed as diameter of inhibition zone at 15 microg/well by agar well diffusion method; type: functional; conditions: read-out: DIZ
Escherichia coli [8] = test: Antibacterial activity against Escherichia coli ATCC 25922 assessed as diameter of inhibition zone at 15 microg/well by agar well diffusion method; type: functional; conditions: read-out: DIZ
[9] = Antioxidant activity assessed as DPPH free radical scavenging activity incubated for 20 mins in dark; type: functional
[10] = Antioxidant activity assessed as DPPH free radical scavenging activity at 0.5 mg/ml incubated for 20 mins in dark (reference value: 1 to 9 %); type: functional
[11] = Antioxidant activity assessed as DPPH free radical scavenging activity at 1 mg/ml incubated for 20 mins in dark (reference value: 1 to 9%); type: functional
[12] = Antioxidant activity assessed as DPPH free radical scavenging activity at 2 mg/ml incubated for 20 mins in dark (reference value: 1 to 9%); type: functional
[13] = Antioxidant activity assessed as DPPH free radical scavenging activity at 2.5 mg/ml incubated for 20 mins in dark (reference value: 1 to 9%); type: functional
[14] = Antioxidant activity assessed as DPPH free radical scavenging activity at 3 mg/ml incubated for 20 mins in dark (reference value: 1 to 9%); type: functional
[15] = Antioxidant activity assessed as reduction in beta-carotene/linoleic acid bleaching activity after 2 hrs by spectrophotometric method; type: functional
[16] = Antioxidant activity assessed as reduction in beta-carotene/linoleic acid bleaching activity at 0.5 mg/ml after 2 hrs by spectrophotometric method (reference value: 1 to 8 %); type: functional; set-up: scale not given: the % may be the effect or the level left
[17] = Antioxidant activity assessed as reduction in beta-carotene/linoleic acid bleaching activity at 1 mg/ml after 2 hrs by spectrophotometric method (reference value: 1 to 8%); type: functional; set-up: scale not given: the % may be the effect or the level left
[18] = Antioxidant activity assessed as reduction in beta-carotene/linoleic acid bleaching activity at 2 mg/ml after 2 hrs by spectrophotometric method (reference value: 1 to 8%); type: functional; set-up: scale not given: the % may be the effect or the level left
[19] = Antioxidant activity assessed as reduction in beta-carotene/linoleic acid bleaching activity at 2.5 mg/ml after 2 hrs by spectrophotometric method (reference value: 1 to 8%); type: functional; set-up: scale not given: the % may be the effect or the level left
[20] = Antioxidant activity assessed as reduction in beta-carotene/linoleic acid bleaching activity at 3 mg/ml after 2 hrs by spectrophotometric method (reference value: 1 to 8%); type: functional; set-up: scale not given: the % may be the effect or the level left
[21] = Antioxidant activity assessed as ABTS radical scavenging activity incubated for 2 hrs in dark by spectrophotometric analysis; type: functional
[22] = Antioxidant activity assessed as ABTS radical scavenging activity at 0.5 mg/ml incubated for 2 hrs in dark by spectrophotometric analysis (reference value: 1 to 9 %); type: functional
[23] = Antioxidant activity assessed as ABTS radical scavenging activity at 1 mg/ml incubated for 2 hrs in dark by spectrophotometric analysis (reference value: 1 to 9%); type: functional
[24] = Antioxidant activity assessed as ABTS radical scavenging activity at 2 mg/ml incubated for 2 hrs in dark by spectrophotometric analysis (reference value: 1 to 9%); type: functional
[25] = Antioxidant activity assessed as ABTS radical scavenging activity at 2.5 mg/ml incubated for 2 hrs in dark by spectrophotometric analysis (reference value: 1 to 9%); type: functional
[26] = Antioxidant activity assessed as ABTS radical scavenging activity at 3 mg/ml incubated for 2 hrs in dark by spectrophotometric analysis (reference value: 1 to 9%); type: functional
Bacillus cereus [27] = test: Antibacterial activity against Bacillus cereus JN934390 after 24 hrs by MTT dye based microdilution method; type: functional; conditions: JN934390, 24 h
Listeria monocytogenes [28] = test: Antibacterial activity against Listeria monocytogenes after 24 hrs by MTT dye based microdilution method; type: functional
Micrococcus luteus [29] = test: Antibacterial activity against Micrococcus luteus after 24 hrs by MTT dye based microdilution method; type: functional
Staphylococcus aureus [30] = test: Antibacterial activity against Staphylococcus aureus ATCC 6538 after 24 hrs by MTT dye based microdilution method; type: functional; conditions: ATCC 6538, 24 h
Salmonella enteritidis [31] = test: Antibacterial activity against Salmonella enterica serotype Enteritidis ATCC 43972 after 24 hrs by MTT dye based microdilution method; type: functional, Salmonella enterica subsp. enterica serovar Enteritidis; conditions: ATCC 43972, 24 h
Klebsiella pneumoniae [32] = test: Antibacterial activity against Klebsiella pneumoniae after 24 hrs by MTT dye based microdilution method; type: functional
Bacillus subtilis [33] = test: Antibacterial activity against Bacillus subtilis JN934392 after 24 hrs by MTT dye based microdilution method; type: functional; conditions: JN934392, 24 h
Bacillus subtilis [34] = test: Antibacterial activity against Bacillus subtilis JN934392 assessed as diameter of inhibition zone at 125 mg/ml by agar well diffusion method; type: functional; conditions: read-out: DIZ
Bacillus cereus [35] = test: Antibacterial activity against Bacillus cereus JN934390 assessed as diameter of inhibition zone at 125 mg/ml by agar well diffusion method; type: functional; conditions: read-out: DIZ
Listeria monocytogenes [36] = test: Antibacterial activity against Listeria monocytogenes assessed as diameter of inhibition zone at 125 mg/ml by agar well diffusion method; type: functional; conditions: read-out: DIZ
Micrococcus luteus [37] = test: Antibacterial activity against Micrococcus luteus assessed as diameter of inhibition zone at 125 mg/ml by agar well diffusion method; type: functional; conditions: read-out: DIZ
Staphylococcus aureus [38] = test: Antibacterial activity against Staphylococcus aureus ATCC 6538 assessed as diameter of inhibition zone at 125 mg/ml by agar well diffusion method; type: functional; conditions: read-out: DIZ
Salmonella enteritidis [39] = test: Antibacterial activity against Salmonella enterica serotype Enteritidis ATCC 43972 assessed as diameter of inhibition zone at 125 mg/ml by agar well diffusion method; type: functional, Salmonella enterica subsp. enterica serovar Enteritidis; conditions: read-out: DIZ
Klebsiella pneumoniae [40] = test: Antibacterial activity against Klebsiella pneumoniae assessed as diameter of inhibition zone at 125 mg/ml by agar well diffusion method; type: functional; conditions: read-out: DIZ
Escherichia coli [41] = test: Antibacterial activity against Escherichia coli ATCC 25922 assessed as diameter of inhibition zone at 125 mg/ml by agar well diffusion method; type: functional
Bacillus subtilis [42] = test: Bactericidal activity against Bacillus subtilis JN934392 after 48 hrs by MTT dye based microdilution method; type: functional; conditions: JN934392, 48 h
Bacillus cereus [43] = test: Bactericidal activity against Bacillus cereus JN934390 after 48 hrs by MTT dye based microdilution method; type: functional; conditions: JN934390, 48 h
Listeria monocytogenes [44] = test: Bactericidal activity against Listeria monocytogenes after 48 hrs by MTT dye based microdilution method; type: functional
Micrococcus luteus [45] = test: Bactericidal activity against Micrococcus luteus after 48 hrs by MTT dye based microdilution method; type: functional
Staphylococcus aureus [46] = test: Bactericidal activity against Staphylococcus aureus ATCC 6538 after 48 hrs by MTT dye based microdilution method; type: functional; conditions: ATCC 6538, 48 h
Salmonella enteritidis [47] = test: Bactericidal activity against Salmonella enterica serotype Enteritidis ATCC 43972 after 48 hrs by MTT dye based microdilution method; type: functional, Salmonella enterica subsp. enterica serovar Enteritidis; conditions: ATCC 43972, 48 h
Klebsiella pneumoniae [48] = test: Bactericidal activity against Klebsiella pneumoniae after 48 hrs by MTT dye based microdilution method; type: functional
Listeria monocytogenes [49] = test: Potency index, ratio of compound DIZ to chloramphenicol DIZ for Listeria monocytogenes; type: functional

SMILES: O=C(N[C@H](CO)[C@H](O)c1ccc([N+](=O)[O-])cc1)C(Cl)Cl [CHLORAMPHENICOL]
zone of inhibition at 15 µg/disc (Bacillus subtilis [1]): 24 mm | zone of inhibition at 15 µg/disc (Bacillus cereus [2]): 26 mm | zone of inhibition at 15 µg/disc (Listeria monocytogenes [3]): 12 mm | zone of inhibition at 15 µg/disc (Micrococcus luteus [4]): 20 mm | zone of inhibition at 15 µg/disc (Staphylococcus aureus [5]): 17 mm | zone of inhibition at 15 µg/disc (Salmonella enteritidis [6]): 16 mm | zone of inhibition at 15 µg/disc (Klebsiella pneumoniae [7]): 22 mm | zone of inhibition at 15 µg/disc (Escherichia coli [8]): 23.5 mm

IC50 [9]: 500 µg/mL (≈ 1.14 mM) | IC50 [15]: 430 µg/mL (≈ 0.978 mM) | IC50 [21]: 420 µg/mL (≈ 0.956 mM) | MIC (Bacillus cereus [27]): 3120 µg/mL (≈ 7.1 mM) | MIC (Listeria monocytogenes [28]): 1560 µg/mL (≈ 3.55 mM) | MIC (Micrococcus luteus [29]): 6250 µg/mL (≈ 14.2 mM) | MIC (Staphylococcus aureus [30]): 6250 µg/mL (≈ 14.2 mM) | MIC (Salmonella enteritidis [31]): 3120 µg/mL (≈ 7.1 mM) | MIC (Klebsiella pneumoniae [32]): 3120 µg/mL (≈ 7.1 mM) | MIC (Bacillus subtilis [33]): 3120 µg/mL (≈ 7.1 mM)
SMILES: Cc1ccc(N2C(=O)[C@H]3[C@H](ON4[C@@H]3C(=O)N(C)[C@@]43C[C@H](C)CC[C@H]3C(C)C)C2=O)c(C)c1
Activity [9]: Dose-dependent effect | Activity [10]: 49.9% | Activity [11]: 57% | Activity [12]: 72% | Activity [13]: 77.1% | Activity [14]: 73.2 to 89.3% | Activity [16]: 51% | Activity [17]: 53.1% | Activity [18]: 57% | Activity [19]: 65.6% | Activity [20]: 71.3% | Activity [22]: 52.9% | Activity [23]: 69% | Activity [24]: 79.4% | Activity [25]: 82.6% | Activity [26]: 85.8% | zone of inhibition at 125000 µg/mL (Bacillus subtilis [34]): 20.7 mm | zone of inhibition at 125000 µg/mL (Bacillus cereus [35]): 21.7 mm | zone of inhibition at 125000 µg/mL (Listeria monocytogenes [36]): 24.7 mm | zone of inhibition at 125000 µg/mL (Micrococcus luteus [37]): 9.66 mm | zone of inhibition at 125000 µg/mL (Staphylococcus aureus [38]): 22 mm | zone of inhibition at 125000 µg/mL (Salmonella enteritidis [39]): 20.3 mm | zone of inhibition at 125000 µg/mL (Klebsiella pneumoniae [40]): 23 mm | diameter of the inhibition zone (DIZ) (Escherichia coli [41]): inactive | MBC (Bacillus subtilis [42]): 12500 µg/mL (≈ 28.4 mM) | MBC (Bacillus cereus [43]): 25000 µg/mL (≈ 56.9 mM) | MBC (Listeria monocytogenes [44]): 3120 µg/mL (≈ 7.1 mM) | MBC (Micrococcus luteus [45]): 50000 µg/mL (≈ 114 mM) | MBC (Staphylococcus aureus [46]): 12500 µg/mL (≈ 28.4 mM) | MBC (Salmonella enteritidis [47]): 12500 µg/mL (≈ 28.4 mM) | MBC (Klebsiella pneumoniae [48]): 6250 µg/mL (≈ 14.2 mM) | Ratio (Listeria monocytogenes [49]): 2
